These results are taken from US10023557B2 (LifeSci Pharmaceuticals, Inc., priority 2015, dated 2018).

pIC50: −log10 of the molar value. A value given as a limit tells only on which side of the number the result lay.

Chain of human plasma kallikrein (P03952 391-638): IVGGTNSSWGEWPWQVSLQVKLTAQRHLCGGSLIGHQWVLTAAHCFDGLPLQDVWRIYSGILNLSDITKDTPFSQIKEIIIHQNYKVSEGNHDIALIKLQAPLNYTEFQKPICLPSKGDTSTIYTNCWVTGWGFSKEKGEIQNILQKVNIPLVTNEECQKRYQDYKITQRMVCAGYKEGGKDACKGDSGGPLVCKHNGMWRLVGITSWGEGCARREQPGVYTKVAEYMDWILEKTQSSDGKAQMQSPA
Chain of human plasma kallikrein (P03952 20-390 partner): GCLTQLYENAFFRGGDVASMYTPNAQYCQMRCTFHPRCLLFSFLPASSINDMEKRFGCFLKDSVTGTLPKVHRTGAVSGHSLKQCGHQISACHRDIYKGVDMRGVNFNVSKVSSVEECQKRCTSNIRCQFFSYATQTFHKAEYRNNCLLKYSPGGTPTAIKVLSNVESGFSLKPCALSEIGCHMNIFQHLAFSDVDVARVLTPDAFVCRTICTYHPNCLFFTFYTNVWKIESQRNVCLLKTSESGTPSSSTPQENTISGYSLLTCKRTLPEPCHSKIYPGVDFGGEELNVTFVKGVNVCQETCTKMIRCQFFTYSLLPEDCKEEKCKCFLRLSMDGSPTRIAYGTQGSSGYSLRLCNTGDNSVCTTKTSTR

The assay concerns the target human plasma kallikrein (Homo sapiens (Human), UniProt P03952). Put plainly: In vitro enzyme inhibition of human plasma kallikrein (PFR-AMC cleavage). Conditions: Pro-Phe-Arg-AMC substrate, 37° C., read-out: hPK IC50. The assay is classed as biochemical. As to the method:
The ability of the compounds disclosed herein to inhibit human plasma kallikrein activity was quantified according to the procedures below.
A 10 mM solution of the test compound was made in DMSO. […] A control tube containing only DMSO is included. 16 μL of each compound test solution was combined with 384 μL of assay buffer (50 mM Tris-HCl pH 7.5, 150 mM NaCl, 0.01% Triton X-100) to yield a “4× test compound buffer stock”.
These solutions are hereby referred to as 4× hPK and 2×PFR-AMC, respectively.
50 μL was removed from this mixture and placed into duplicate wells on a Microfluor 1Black U-bottom microtiter plate (Thermo Scientific). This plate was incubated for 5 minutes at 37° C. To each well, 50 μL of pre-warmed 2×PFR-AMC was added to start the enzymatic reaction. Cleavage of PFR-AMC was monitored in a Biotek Synergy H4 reader set at 37° C. Readings are taken every 43 seconds for 1 hour. […] The IC50 is calculated using the Gen5 (Biotek Instruments).
The ability of the compounds in Table 3 to inhibit human plasma kallikrein activity was determined.
Broadly, the pIC50 is the IC50 on a negative log10 scale, so that one unit is a factor of ten. On to `O=C(NCc1c[nH]c2ccc(Cl)cc12)c1ccnc(Cc2ccc3ncc(Cl)cc3c2)c1` [Example 268, N-((5-chloro-1H-indol-3-yl)methyl)-2-((3-chloroquinolin-6-yl)methyl)isonicotinamide], for which the negative logarithm of the IC50 (pIC50) was 6.00 to 7.00. Take `O=C(NCc1nnc2ccc(Cl)cn12)c1ccnc(Cc2ccc3ncc(Cl)cc3c2)c1` [Example 154, N-((6-chloro-[1,2,4]triazolo[4,3-a]pyridin-3-yl)methyl)-2-((3-chloroquinolin-6-yl)methyl)isonicotinamide]: the pIC50 was 6.00 to 7.00. As for `CCc1cnc2ccc(Cc3cc(C(=O)NCc4ccc5[nH]cc(Cl)c5c4F)ccn3)cc2c1` [Example 282, N-((3-chloro-4-fluoro-1H-indol-5-yl)methyl)-2-((3-ethylquinolin-6-yl)methyl)isonicotinamide], the pIC50 was more than 7.00. Regarding `Cc1cc(N)nc(C)c1CNC(=O)c1ccnc(C(=O)c2ccc3ncc(Cl)cc3c2)c1` [Example 274, N-((6-amino-2,4-dimethylpyridin-3-yl)methyl)-2-(3-chloroquinoline-6-carbonyl)isonicotinamide], the negative-log IC50 (pIC50) is 6.00 to 7.00. On to `CC(=O)Nc1cc(C)c(CNC(=O)c2ccnc(Cc3ccc4ncc(Cl)cc4c3)c2)c(C)n1` [Example 193, N-((6-acetamido-2,4-dimethylpyridin-3-yl)methyl)-2-((3-chloroquinolin-6-yl)methyl)isonicotinamide], for which the negative-log IC50 (pIC50) was 5.00 to 6.00. As for `O=C(NCc1cnc2[nH]cc(Cl)c2c1)c1ccnc(Cc2ccc3ncc(N4CCOCC4)cc3c2)c1` [Example 294, N-((3-chloro-1H-pyrrolo[2,3-b]pyridin-5-yl)methyl)-2-((3-morpholinoquinolin-6-yl)methyl)isonicotinamide], the figure is 5.00 to 6.00.

Regarding `Cc1c(CNC(=O)c2ccnc(Cc3ccc4ncc(Cl)cc4c3)c2)cnc2[nH]cc(Cl)c12` [Example 189, N-((3-chloro-4-methyl-1H-pyrrolo[2,3-b]pyridin-5-yl)methyl)-2-((3-chloroquinolin-6-yl)methyl)isonicotinamide], the negative-log IC50 (pIC50) is 6.00 to 7.00. On to `O=C(NCc1cc2c(Cl)c[nH]c2cc1F)c1ccnc(Cc2ccc3ncc(N4CCCCC4)cc3c2)c1` [Example 302, N-((3-chloro-6-fluoro-1H-indol-5-yl)methyl)-2-((3-(piperidin-1-yl)quinolin-6-yl)methyl)isonicotinamide], for which the pIC50 is 5.00 to 6.00. As to `Cc1cnc2c(C(C)(C)O)cc(Cc3cc(C(=O)NCc4ccc5[nH]cc(Cl)c5c4F)ccn3)cc2c1` [Example 315, N-((3-chloro-4-fluoro-1H-indol-5-yl)methyl)-2-((8-(2-hydroxypropan-2-yl)-3-methylquinolin-6-yl)methyl)isonicotinamide], the pIC50 was more than 7.00.

For `Nc1nccc2cc(CNC(=O)c3ccnc(Cc4ccc5ncc(N6CCCCC6)cc5c4)c3)ccc12` [Example 303, N-((1-aminoisoquinolin-6-yl)methyl)-2-((3-(piperidin-1-yl)quinolin-6-yl)methyl)isonicotinamide], the pIC50 was 5.00 to 6.00.

On to `Cc1nc(N)ccc1CNC(=O)c1ccnc(Cc2cc(-c3nnn[nH]3)c3ncc(Cl)cc3c2)c1` [Example 273, N-((6-amino-2-methylpyridin-3-yl)methyl)-2-((3-chloro-8-(1H-tetrazol-5-yl)quinolin-6-yl)methyl)isonicotinamide], for which the pIC50 was 6.00 to 7.00.

On to `CCc1cnc2ccc(Cc3cc(C(=O)NCc4ccc(N)nc4C)ccn3)cc2c1` [Example 285, N-((6-amino-2-methylpyridin-3-yl)methyl)-2-((3-ethylquinolin-6-yl)methyl)isonicotinamide], for which the pIC50 is more than 7.00. For `Cc1nc2[nH]cc(Cl)c2cc1CNC(=O)c1ccnc(Cc2ccc3ncc(Cl)cc3c2)c1` [Example 191, N-((3-chloro-6-methyl-1H-pyrrolo[2,3-b]pyridin-5-yl)methyl)-2-((3-chloroquinolin-6-yl)methyl)isonicotinamide], the negative logarithm of the IC50 (pIC50) was more than 7.00. In the case of `Cc1nc(N)ccc1CNC(=O)c1ccnc(Cc2cnc3cc(F)c(Cl)cc3c2)c1` [Example 227, N-((6-amino-2-methylpyridin-3-yl)methyl)-2-((6-chloro-7-fluoroquinolin-3-yl)methyl)isonicotinamide] it was more than 7.00; in that of `Cc1[nH]c2ccc(Cl)cc2c1CNC(=O)c1ccnc(Cc2ccc3ncc(Cl)cc3c2)c1` [Example 270, N-((5-chloro-2-methyl-1H-indol-3-yl)methyl)-2-((3-chloroquinolin-6-yl)methyl)isonicotinamide], 6.00 to 7.00; in that of `Cc1ccn2nnc(CNC(=O)c3ccnc(Cc4ccc5ncc(Cl)cc5c4)c3)c2c1` [Example 155, 2-((3-chloroquinolin-6-yl)methyl)-N-((5-methyl-[1,2,3]triazolo[1,5-a]pyridin-3-yl)methyl)isonicotinamide], 6.00 to 7.00. Regarding `O=C(NCc1n[nH]c2ccc(Cl)cc12)c1ccnc(Cc2ccc3ncc(N4CCOCC4)cc3c2)c1` [Example 295, N-((5-chloro-1H-indazol-3-yl)methyl)-2-((3-morpholinoquinolin-6-yl)methyl)isonicotinamide], the pIC50 was 5.00 to 6.00. Consider “N-(6-amino-2,4-dimethyl-pyridin-3-ylmethyl)-2-(2-cyano-quinolin-6-ylmethyl)-isonicotinamide [Example 131]”, for which the negative-log IC50 (pIC50) was more than 7.00.

As to `Cc1nc2c(cc1CNC(=O)c1ccnc(Cc3ccc4ncc(C(F)(F)F)cc4c3)c1)CCN2` [Example 162, N-((6-methyl-2,3-dihydro-1H-pyrrolo[2,3-b]pyridin-5-yl)methyl)-2-((3-(trifluoromethyl)quinolin-6-yl)methyl)isonicotinamide], the pIC50 was 6.00 to 7.00.

For the molecule `Cc1cc(N)nc(C)c1CNC(=O)c1ccnc(Cn2cc3cc(Cl)cnc3n2)c1` [Example 203, N-((6-amino-2,4-dimethylpyridin-3-yl)methyl)-2-((5-chloro-2H-pyrazolo[3,4-b]pyridin-2-yl)methyl)isonicotinamide], the pIC50 is 6.00 to 7.00. In the case of `Cc1cc(N)nc(C)c1CNC(=O)c1ccnc(Cc2ccc3ncc(C(C)O)cc3c2)c1` (centres unmarked) [Example 262, N-((6-amino-2,4-dimethylpyridin-3-yl)methyl)-2-((3-(1-hydroxyethyl)quinolin-6-yl)methyl)isonicotinamide] it was more than 7.00; in that of `Cc1nc(N)cc(C(F)(F)F)c1CNC(=O)c1ccnc(Cc2ccc3ncc(Cl)cc3c2)c1` [Example 165, N-((6-amino-2-methyl-4-(trifluoromethyl)pyridin-3-yl)methyl)-2-((3-chloroquinolin-6-yl)methyl)isonicotinamide], 6.00 to 7.00; in that of `COc1cc(N)nc(C)c1CNC(=O)c1ccnc(Cc2ccc3ncc(Cl)cc3c2)c1` [Example 166, N-((6-amino-4-methoxy-2-methylpyridin-3-yl)methyl)-2-((3-chloroquinolin-6-yl)methyl)isonicotinamide], less than 5.00. In the case of `Nc1cnc2ccc(Cc3cc(C(=O)NCc4ccc5c(N)nccc5c4)ccn3)cc2c1` [Example 298, N-((1-aminoisoquinolin-6-yl)methyl)-2-((3-aminoquinolin-6-yl)methyl)isonicotinamide] it was 6.00 to 7.00. Regarding `Cc1nc(N)ccc1C(C)NC(=O)c1ccnc(Cc2ccc3ncc(Cl)cc3c2)c1` (centres unmarked) [Example 237, N-(1-(6-amino-2-methylpyridin-3-yl)ethyl)-2-((3-chloroquinolin-6-yl)methyl)isonicotinamide], the pIC50 is 5.00 to 6.00.

For the molecule `Cc1nc2[nH]cc(Cl)c2c(C)c1CNC(=O)c1ccnc(Cc2ccc3ncc(Cl)cc3c2)c1` [Example 192, N-((3-chloro-4,6-dimethyl-1H-pyrrolo[2,3-b]pyridin-5-yl)methyl)-2-((3-chloroquinolin-6-yl)methyl)isonicotinamide], the pIC50 was 6.00 to 7.00. For `Cc1ccn2c(C)nc(CNC(=O)c3ccnc(Cc4ccc5ncc(Cl)cc5c4)c3)c2c1` [Example 158, 2-((3-chloroquinolin-6-yl)methyl)-N-((3,7-dimethylimidazo[1,5-a]pyridin-1-yl)methyl)isonicotinamide], the pIC50 is 6.00 to 7.00. Regarding `Cc1cc2cncn2cc1CNC(=O)c1ccnc(Cc2ccc3ncc(Cl)cc3c2)c1` [Example 188, 2-((3-chloroquinolin-6-yl)methyl)-N-((7-methylimidazo[1,5-a]pyridin-6-yl)methyl)isonicotinamide], the negative-log IC50 (pIC50) was less than 5.00.

For the molecule `Cc1cnc2c(C(C)(C)O)cc(Cc3cc(C(=O)NCc4ccc5c(N)nccc5c4)ccn3)cc2c1` [Example 319], the pIC50 is more than 7.00. For the molecule `O=C(NCc1n[nH]c2ccc(Cl)cc12)c1ccnc(Cc2ccc3ncc(N4CCNCC4)cc3c2)c1` [Example 312, N-((5-chloro-1H-indazol-3-yl)methyl)-2-((3-(piperazin-1-yl)quinolin-6-yl)methyl)isonicotinamide], the negative-log IC50 (pIC50) was 5.00 to 6.00.

Take `Cc1nc2c(c(C)c1CNC(=O)c1ccnc(Cc3ccc4ncc(Cl)cc4c3)c1)CCN2` [Example 175, 2-((3-chloroquinolin-6-yl)methyl)-N-((4,6-dimethyl-2,3-dihydro-1H-pyrrolo[2,3-b]pyridin-5-yl)methyl)isonicotinamide]: the negative-log IC50 (pIC50) was more than 7.00. In the case of `Cc1cnc2c(C(C)(C)O)cc(Cc3cc(C(=O)NCc4cnc5[nH]cc(Cl)c5c4)ccn3)cc2c1` [Example 316, N-((3-chloro-1H-pyrrolo[2,3-b]pyridin-5-yl)methyl)-2-((8-(2-hydroxypropan-2-yl)-3-methylquinolin-6-yl)methyl)isonicotinamide] it was more than 7.00.
